# The supplement of paper PMC10307832
# Key:
# Experiment in all cases: relative viability (nuclei count vs DMSO), 5 days (fraction); higher = more cells survive
# UMC-11 = test system: UMC-11
# Summary of the method: (§1)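 Medians of duplicate plates are given as relative viability. That measure is the nuclei count in treated wells divided by the count in vehicle wells. Counts were taken on 4× images of lung cancer cell lines in 1536-well plates, 5 days after pin-tool dosing the day after seeding with one drug alone or a fixed anchor-drug dose plus five library-drug doses (not always all listed) in √10 steps.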
# NCI-H1666 = test system: NCI-H1666
# Summary of the method: as §1
# LXF-289 = test system: LXF-289
# Summary of the method: as §1
# NCI-H1651 = test system: NCI-H1651
# Summary of the method: as §1
# PC-3 [JPC-3] = test system: PC-3 [JPC-3]
# Summary of the method: as §1
# LU99A = test system: LU99A
# Summary of the method: as §1
# HCC-15 = test system: HCC-15
# Summary of the method: as §1
# BEN = test system: BEN
# Summary of the method: as §1
# NCI-H838 = test system: NCI-H838
# Summary of the method: as §1
# SK-MES-1 = test system: SK-MES-1
# Summary of the method: as §1
# LCLC-97TM1 = test system: LCLC-97TM1
# Summary of the method: as §1
# NCI-H2087 = test system: NCI-H2087
# Summary of the method: as §1
# LC-2-ad = test system: LC-2-ad
# Summary of the method: as §1
# LK-2 = test system: LK-2
# Summary of the method: as §1
# NCI-H1944 = test system: NCI-H1944
# Summary of the method: as §1
# ChaGo-K-1 = test system: ChaGo-K-1
# Summary of the method: as §1
# HCC-78 = test system: HCC-78
# Summary of the method: as §1
# NCI-H596 = test system: NCI-H596
# Summary of the method: as §1
# NCI-H322M = test system: NCI-H322M
# Summary of the method: as §1
# NCI-H650 = test system: NCI-H650
# Summary of the method: as §1
# NCI-H661 = test system: NCI-H661
# Summary of the method: as §1
# NCI-H358 = test system: NCI-H358
# Summary of the method: as §1
structure (smiles),measurement,setting,value
O=C(O)c1ccc(-c2c[nH]c3ncc(-c4ccccc4)cc23)cc1C1CCCC1 + CC1(C)CCC(c2ccc(Cl)cc2)=C(CN2CCN(c3ccc(C(=O)NS(=O)(=O)c4ccc(N[C@H](CCN5CCOCC5)CSc5ccccc5)c(S(=O)(=O)C(F)(F)F)c4)cc3)CC2)C1 [Navitoclax] (partner 0.5 µM),relative viability,UMC-11; first compound 0.04 µM,0.318
same,relative viability,UMC-11; first compound 0.1265 µM,0.299
same,relative viability,UMC-11; first compound 0.4 µM,0.328
same,relative viability,UMC-11; first compound 1.265 µM,0.222
same,relative viability,NCI-H1666; first compound 0.04 µM,1.02
same,relative viability,NCI-H1666; first compound 0.1265 µM,1.01
same,relative viability,NCI-H1666; first compound 0.4 µM,0.849
same,relative viability,NCI-H1666; first compound 1.265 µM,0.584
same,relative viability,LXF-289; first compound 0.04 µM,0.936
same,relative viability,LXF-289; first compound 0.1265 µM,0.883
same,relative viability,LXF-289; first compound 0.4 µM,0.658
same,relative viability,LXF-289; first compound 1.265 µM,0.48
same,relative viability,NCI-H1651; first compound 0.04 µM,0.926
same,relative viability,NCI-H1651; first compound 0.1265 µM,0.995
same,relative viability,NCI-H1651; first compound 0.4 µM,0.943
same,relative viability,NCI-H1651; first compound 1.265 µM,0.696
same,relative viability,PC-3 [JPC-3]; first compound 0.04 µM,0.817
same,relative viability,PC-3 [JPC-3]; first compound 0.1265 µM,0.886
same,relative viability,PC-3 [JPC-3]; first compound 0.4 µM,0.7
same,relative viability,PC-3 [JPC-3]; first compound 1.265 µM,0.564
same,relative viability,LU99A; first compound 0.04 µM,0.818
same,relative viability,LU99A; first compound 0.1265 µM,0.987
same,relative viability,LU99A; first compound 0.4 µM,0.735
same,relative viability,LU99A; first compound 1.265 µM,0.721
same,relative viability,HCC-15; first compound 0.04 µM,0.697
same,relative viability,HCC-15; first compound 0.1265 µM,0.746
same,relative viability,HCC-15; first compound 0.4 µM,0.662
same,relative viability,HCC-15; first compound 1.265 µM,0.373
same,relative viability,BEN; first compound 0.04 µM,0.06
same,relative viability,BEN; first compound 0.1265 µM,0.057
same,relative viability,BEN; first compound 0.4 µM,0.0946
same,relative viability,BEN; first compound 1.265 µM,0.0505
same,relative viability,NCI-H838; first compound 0.04 µM,1.15
same,relative viability,NCI-H838; first compound 0.1265 µM,1.27
same,relative viability,NCI-H838; first compound 0.4 µM,1.22
same,relative viability,NCI-H838; first compound 1.265 µM,1.07
same,relative viability,SK-MES-1; first compound 0.04 µM,1.19
same,relative viability,SK-MES-1; first compound 0.1265 µM,1.24
same,relative viability,SK-MES-1; first compound 0.4 µM,1.05
same,relative viability,SK-MES-1; first compound 1.265 µM,0.798
same,relative viability,LCLC-97TM1; first compound 0.04 µM,0.463
same,relative viability,LCLC-97TM1; first compound 0.1265 µM,0.303
same,relative viability,LCLC-97TM1; first compound 0.4 µM,0.503
same,relative viability,LCLC-97TM1; first compound 1.265 µM,0.396
same,relative viability,NCI-H2087; first compound 0.04 µM,0.856
same,relative viability,NCI-H2087; first compound 0.1265 µM,1.03
same,relative viability,NCI-H2087; first compound 0.4 µM,1.05
same,relative viability,NCI-H2087; first compound 1.265 µM,0.857
same,relative viability,LC-2-ad; first compound 0.04 µM,0.399
same,relative viability,LC-2-ad; first compound 0.1265 µM,0.5
same,relative viability,LC-2-ad; first compound 0.4 µM,0.415
same,relative viability,LC-2-ad; first compound 1.265 µM,0.173
same,relative viability,LK-2; first compound 0.04 µM,0.9
same,relative viability,LK-2; first compound 0.1265 µM,0.876
same,relative viability,LK-2; first compound 0.4 µM,0.795
same,relative viability,LK-2; first compound 1.265 µM,0.687
same,relative viability,NCI-H1944; first compound 0.04 µM,1.01
same,relative viability,NCI-H1944; first compound 0.1265 µM,1.03
same,relative viability,NCI-H1944; first compound 0.4 µM,1.07
same,relative viability,NCI-H1944; first compound 1.265 µM,0.932
same,relative viability,ChaGo-K-1; first compound 0.04 µM,1.16
same,relative viability,ChaGo-K-1; first compound 0.1265 µM,1.3
same,relative viability,ChaGo-K-1; first compound 0.4 µM,0.888
same,relative viability,ChaGo-K-1; first compound 1.265 µM,1.32
same,relative viability,HCC-78; first compound 0.04 µM,0.849
same,relative viability,HCC-78; first compound 0.1265 µM,0.904
same,relative viability,HCC-78; first compound 0.4 µM,0.802
same,relative viability,HCC-78; first compound 1.265 µM,0.542
same,relative viability,NCI-H596; first compound 0.04 µM,0.82
same,relative viability,NCI-H596; first compound 0.1265 µM,1.12
same,relative viability,NCI-H596; first compound 0.4 µM,0.869
same,relative viability,NCI-H596; first compound 1.265 µM,0.884
same,relative viability,NCI-H322M; first compound 0.04 µM,1.19
same,relative viability,NCI-H322M; first compound 0.1265 µM,1.37
same,relative viability,NCI-H322M; first compound 0.4 µM,1.34
same,relative viability,NCI-H322M; first compound 1.265 µM,1.03
O=C(O)c1ccc(-c2c[nH]c3ncc(-c4ccccc4)cc23)cc1C1CCCC1 + CS(=O)(=O)N1CCN(Cc2cc3nc(-c4cccc5[nH]ncc45)nc(N4CCOCC4)c3s2)CC1 [Pictilisib] (partner 1 µM),relative viability,UMC-11; first compound 0.04 µM,0.827
same,relative viability,UMC-11; first compound 0.1265 µM,0.937
same,relative viability,UMC-11; first compound 0.4 µM,0.853
same,relative viability,UMC-11; first compound 1.265 µM,0.775
same,relative viability,NCI-H1666; first compound 0.04 µM,0.406
same,relative viability,NCI-H1666; first compound 0.1265 µM,0.439
same,relative viability,NCI-H1666; first compound 0.4 µM,0.451
same,relative viability,NCI-H1666; first compound 1.265 µM,0.251
same,relative viability,LXF-289; first compound 0.04 µM,0.762
same,relative viability,LXF-289; first compound 0.1265 µM,0.869
same,relative viability,LXF-289; first compound 0.4 µM,0.645
same,relative viability,LXF-289; first compound 1.265 µM,0.404
same,relative viability,NCI-H1651; first compound 0.04 µM,0.557
same,relative viability,NCI-H1651; first compound 0.1265 µM,0.641
same,relative viability,NCI-H1651; first compound 0.4 µM,0.451
same,relative viability,NCI-H1651; first compound 1.265 µM,0.455
same,relative viability,PC-3 [JPC-3]; first compound 0.04 µM,0.784
same,relative viability,PC-3 [JPC-3]; first compound 0.1265 µM,0.799
same,relative viability,PC-3 [JPC-3]; first compound 0.4 µM,0.757
same,relative viability,PC-3 [JPC-3]; first compound 1.265 µM,0.768
same,relative viability,LU99A; first compound 0.04 µM,0.321
same,relative viability,LU99A; first compound 0.1265 µM,0.315
same,relative viability,LU99A; first compound 0.4 µM,0.308
same,relative viability,LU99A; first compound 1.265 µM,0.278
same,relative viability,HCC-15; first compound 0.04 µM,0.736
same,relative viability,HCC-15; first compound 0.1265 µM,0.839
same,relative viability,HCC-15; first compound 0.4 µM,0.755
same,relative viability,HCC-15; first compound 1.265 µM,0.514
same,relative viability,BEN; first compound 0.04 µM,0.546
same,relative viability,BEN; first compound 0.1265 µM,0.609
same,relative viability,BEN; first compound 0.4 µM,0.584
same,relative viability,BEN; first compound 1.265 µM,0.555
same,relative viability,NCI-H838; first compound 0.04 µM,0.423
same,relative viability,NCI-H838; first compound 0.1265 µM,0.57
same,relative viability,NCI-H838; first compound 0.4 µM,0.506
same,relative viability,NCI-H838; first compound 1.265 µM,0.447
same,relative viability,SK-MES-1; first compound 0.04 µM,0.326
same,relative viability,SK-MES-1; first compound 0.1265 µM,0.399
same,relative viability,SK-MES-1; first compound 0.4 µM,0.283
same,relative viability,SK-MES-1; first compound 1.265 µM,0.298
same,relative viability,LCLC-97TM1; first compound 0.04 µM,0.228
same,relative viability,LCLC-97TM1; first compound 0.1265 µM,0.183
same,relative viability,LCLC-97TM1; first compound 0.4 µM,0.192
same,relative viability,LCLC-97TM1; first compound 1.265 µM,0.17
same,relative viability,NCI-H650; first compound 0.04 µM,0.993
same,relative viability,NCI-H650; first compound 0.1265 µM,0.889
same,relative viability,NCI-H650; first compound 0.4 µM,0.701
same,relative viability,NCI-H650; first compound 1.265 µM,0.681
same,relative viability,NCI-H2087; first compound 0.04 µM,0.963
same,relative viability,NCI-H2087; first compound 0.1265 µM,1.09
same,relative viability,NCI-H2087; first compound 0.4 µM,0.758
same,relative viability,NCI-H2087; first compound 1.265 µM,0.712
same,relative viability,LC-2-ad; first compound 0.04 µM,0.48
same,relative viability,LC-2-ad; first compound 0.1265 µM,0.46
same,relative viability,LC-2-ad; first compound 0.4 µM,0.462
same,relative viability,LC-2-ad; first compound 1.265 µM,0.351
same,relative viability,LK-2; first compound 0.04 µM,0.754
same,relative viability,LK-2; first compound 0.1265 µM,0.507
same,relative viability,LK-2; first compound 0.4 µM,0.611
same,relative viability,LK-2; first compound 1.265 µM,0.592
same,relative viability,NCI-H661; first compound 0.1265 µM,0.464
same,relative viability,NCI-H661; first compound 0.4 µM,0.508
same,relative viability,NCI-H661; first compound 1.265 µM,0.424
same,relative viability,NCI-H1944; first compound 0.04 µM,0.359
same,relative viability,NCI-H1944; first compound 0.1265 µM,0.338
same,relative viability,NCI-H1944; first compound 0.4 µM,0.309
same,relative viability,NCI-H1944; first compound 1.265 µM,0.35
same,relative viability,NCI-H358; first compound 0.04 µM,0.39
same,relative viability,NCI-H358; first compound 0.1265 µM,0.364
same,relative viability,NCI-H358; first compound 0.4 µM,0.371
same,relative viability,NCI-H358; first compound 1.265 µM,0.255
same,relative viability,ChaGo-K-1; first compound 0.04 µM,0.788
same,relative viability,ChaGo-K-1; first compound 0.1265 µM,1.11
same,relative viability,ChaGo-K-1; first compound 0.4 µM,0.649
same,relative viability,ChaGo-K-1; first compound 1.265 µM,0.923
same,relative viability,HCC-78; first compound 0.04 µM,0.231
same,relative viability,HCC-78; first compound 0.1265 µM,0.263
same,relative viability,HCC-78; first compound 0.4 µM,0.179
same,relative viability,HCC-78; first compound 1.265 µM,0.168
same,relative viability,NCI-H596; first compound 0.04 µM,0.353
same,relative viability,NCI-H596; first compound 0.1265 µM,0.399
same,relative viability,NCI-H596; first compound 0.4 µM,0.353
same,relative viability,NCI-H596; first compound 1.265 µM,0.41
same,relative viability,NCI-H322M; first compound 0.04 µM,0.564
same,relative viability,NCI-H322M; first compound 0.1265 µM,0.526
same,relative viability,NCI-H322M; first compound 0.4 µM,0.487
same,relative viability,NCI-H322M; first compound 1.265 µM,0.482
